Entries after “also recorded” stand apart in the source; their conditions may differ.
Assays:
[1] = tested on: GSDMD regulated cytokines; assay: Cytokine level of tumour interstitial fluid of M3-9-M^OVA tumours; type: in vivo, mouse
Method: Cells were seeded in a 96-well plate at a density of 0.5-1.0×10^6 cells/well and treated with PRR agonists in combination with or without metabolites. To measure cytokine levels, culture supernatant was collected at specific timepoints. To check cytokine levels of the tumour interstitial fluid, samples were prepared following the protocol, as mentioned by Kim et al (Nat. Commun. 8, (2017)). Cellular IL-1 levels were determined by incubating HEK-Blue™ IL-1β cells ([…]) with the collected culture supernatant and measuring the SEAP levels in the culture medium using QUANTI-Blue™ solution ([…]). Multiplexed quantification of cytokines, chemokines, and growth factors was also conducted by Eve Technologies Corp. (Calgary, Alberta) using the Luminex™ 200 system (Luminex, Austin, TX, USA).

NF-κB pathway = assay: NF-κB activity reporter assay in THP1-Dual cells; type: cell-based, human
Method: NF-κB and IRF induction assays were performed using mouse RAW-Dual™ (InvivoGen) and human THP1-Dua™ (InvivoGen) reporter cell lines. The cells were resuspended in freshly prepared test media at a concentration of 1.0×10^6 cells/mL for RAW-Dual™ and 5.0×10^5 cells/mL for THP1-Dual™. 180 μL of cells were seeded per well in a standard 96-well plate and optimized the concentration of several PRR agonists that trigger NF-κB and IRF. To test the metabolite effect on these pathways, 10 μL of the optimized receptor agonist, 10 μL of the 2 mM metabolite solution or vehicle was added to each well, making a final volume of 200 μL. To neutralize IL-1 receptor signalling, anti-IL-1a (clone 7D4, InvivoGen) and anti-IL-1β (clone 4H5, InvivoGen) antibodies were added and IgG1 isotype (clone T8E5, InvivoGen) was used as a control, as per manufacturer's recommendation. NF-κB activity was determined by measuring secreted embryonic alkaline phosphatase (SEAP) levels using QUANTI-Blue™ solution (InvivoGen). After aliquoting 20 μL of cell culture supernatant into 180 μL of QUANTI-Blue™, the conversion of color to blue was monitored and SEAP levels were determined using a SpectraMax i3 from Molecular Devices at 650 nm. To assess IRF induction, secreted lucia luciferase levels were measured in the culture medium using QUANTI-Luc™ solution (InvivoGen). 20 μL of cell culture supernatant was aliquoted into 50 μL of QUANTI-Luc™ solution and the luminescence reading was immediately recorded using the SpectraMax i3.

[2] = Maximum tolerable dose and body weight of mice given metabolite intraperitoneally; type: in vivo; conditions: 83 mg/kg body weight, given every 48 hours, intraperitoneal

For `O=C(O)CCc1ccccc1O` [Compound I-1, 3-(2-hydroxyphenyl)propanoic acid], the IL-1β release ([1]; M3-9-M^OVA tumours) was “notable increase”, the “secretion of GSDMD regulated cytokines / cytokine milieu in TME” value ([1]; male JAX C57BL/6 mice, 14 days, treatment from day 1, listed as 3,2-HPP) was “impacted the secretion; also recorded: significantly shifts” and the “NF-κB pathway activation combined with PRR agonists” value (NF-κB pathway; LPS or other NF-κB pathway inducers) was “potentiate”. For the same compound, the “NF-κB pathway activation when treated with LPS” value (NF-κB pathway; LPS, 16 hours, vs vehicle) was “potentiates” and the “toxicity or weight loss” value [2] was “without toxicity or weight loss”.
